Patent US9243237B2, “Method for mass production of factor VII/VIIA” (HANMI SCIENCE CO., LTD, priority 2010, dated 2016)

Assays:
Type in all cases: cell-based, Chinese hamster
[1] = tested on: CHO/dhfr- cells transformed with pX0GC-FVII; test: Selection of human factor VII-expressing cells in MTX selection medium, expression level by enzyme immunoassay; settings: MTX concentration of 10 nM or higher
Protocol: The transformed cells of Example <2-1> were seeded at a density of 2×10^4 cells/well to 24-well plates. When the cells were grown to almost full confluence, serum-free CHO-A-SFM (Gibco, Cat. No. 05-5072EF) supplemented with 0.3 mM sodium butyrate (Sigma, Cat. No. B5887) was aliquoted in an amount of 200 μL/well, followed by incubation at 33° C. for 48 hours in a 5% CO2 incubator. The cell culture was transferred to 1.5 mL tubes and centrifuged. Expression levels of human factor VII in the supernatants were measured by taking measurements using an enzyme immunoassay kit (American Diagnostica, Cat. no. 877) according to the manufacturer's instruction. In detail, the cell culture and the standard substance enclosed in the kit were diluted to certain concentrations in physiological saline containing 0.05% Tween-20, and the dilutions were added in an amount of 100 μL to each well of the kit and allowed to react at room temperature for one hour on a plate shaker. […] Five minutes later, 50 μL of a stopping solution was added to each well, followed by measuring absorbance at 450 nm. A standard curve and a function were obtained from the concentrations of the standard solution and the absorbance values obtained. […]

[2] = tested on: hFVII-expressing recombinant CHO cell line (HMF708); test: Growth of hFVII-expressing cell line in production medium containing sodium butyrate (50 mL Erlenmeyer flasks), hFVII level by enzyme immunoassay; settings: for FVII Level (% compared to control %): 30.0°C, day 4, supernatant
Protocol: (§1) The transformed cells of Example <2-1> were seeded at a density of 2×10^4 cells/well to 24-well plates. When the cells were grown to almost full confluence, serum-free CHO-A-SFM (Gibco, Cat. No. 05-5072EF) supplemented with 0.3 mM sodium butyrate (Sigma, Cat. No. B5887) was aliquoted in an amount of 200 μL/well, followed by incubation at 33° C. for 48 hours in a 5% CO2 incubator. The cell culture was transferred to 1.5 mL tubes and centrifuged. Expression levels of human factor VII in the supernatants were measured by taking measurements using an enzyme immunoassay kit (American Diagnostica, Cat. no. 877) according to the manufacturer's instruction. In detail, the cell culture and the standard substance enclosed in the kit were diluted to certain concentrations in physiological saline containing 0.05% Tween-20, and the dilutions were added in an amount of 100 μL to each well of the kit and allowed to react at room temperature for one hour on a plate shaker. After being washed four times with the washing solution enclosed in the kit, each of the wells was incubated at room temperature for one hour with 100 μL of an anti-human factor VII antibody on a plate shake. Each well was again washed four times with the washing solution and then incubated at room temperature for 30 min with 100 μL of an HRP (horseradish peroxidase)-conjugated antibody to the anti-human factor VII antibody. Subsequently, the wells were washed four times, and incubated with 100 μL of a substrate per well at room temperature. Five minutes later, 50 μL of a stopping solution was added to each well, followed by measuring absorbance at 450 nm. A standard curve and a function were obtained from the concentrations of the standard solution and the absorbance values obtained.
(§2) One vial (1×10^7 cells/mL) of the hFVII-expressing cell line which had been selected and assimilated to a suspension culture in Example <2-3> was taken from a liquid nitrogen tank and thawed as soon as possible in a 37° C. bath. After being washed once with a seed culturing medium (EX-CELL CHO medium (Sigma, Cat. No. 63225C) supplemented with 0.3 g/L glutamine), the cell culture was centrifuged at 90×g for 5 min and then inoculated into 50 mL of a seed culture medium in an Erlenmeyer flask (Corning, USA cat#431144). When grown for 1-2 days to a density of 10×10^5 cells/mL in a CO2 incubator (37° C., 5% CO2), the cells were centrifuged again in the same manner and then sub-cultured in 100 mL of a fresh seed culture medium in a new Erlenmeyer flask. The double-volume passage was continued until there was a sufficient number of cells.
The effect of sodium butyrate on the production of hFVII was examined. For this, first, the recombinant CHO cell line which was being cultured was inoculated at a density of 5.0×10^6 cells/mL into 50 mL of a production medium in each of three Erlenmeyer flasks which contained sodium butyrate (Cat. no. B5887, SIGMA, USA) at concentrations of 0.3, 1.0 and 1.5 mM, respectively. The cells grown in the presence of 0.3 mM sodium butyrate were used as a control for comparison. The cells were cultured at 30.0° C. for four days to produce hFVII. On day 4, the cell concentration and cellular activity of the cell cultures were examined. There were no changes in cell density and cellular activity among the cell cultures of different butyrate concentrations.
In addition, after centrifugation of the cell cultures on Day 4, the levels of hFVII in the supernatants were measured using an enzyme immunoassay method as in Example <2-2>.

[3] = tested on: hFVII-expressing recombinant CHO cell line (HMF708); test: Growth of the cell line in mass-scale production medium (4 L incubation tanks, continuous feed) containing sodium butyrate, hFVII level by enzyme immunoassay; settings: for FVII Level (% compared to control %): 4 L, 30.0°C, 11-18 days
Protocol: as §1
as §2, with “assimilated to suspension culture” for “assimilated to a suspension culture”, “90×g for min and” for “90×g for 5 min and”, “of 10×10^5 cell/mL in a” for “of 10×10^5 cells/mL in a”, “continued until a sufficient” for “continued until there was a sufficient”, “number of cells were achieved.” for “number of cells.”
The effect of sodium butyrate on the production of hFVII was examined when the cells were cultured on mass scale. For this, first, the recombinant CHO cell line which was being cultured was inoculated at a density of 1.2×10^7 cells/mL into 4 L of a production medium in each of incubation tanks which contained sodium butyrate (Cat. no. B5887, SIGMA, USA) at concentrations of 0.3, 1.0, 1.5 and 2.0 mM, respectively. The cells grown in the presence of 0.3 mM sodium butyrate were used as a control for comparison. To produce hVII, the cells were cultured at 30.0° C. for 11-18 days with the medium continuously fed at 0.5-1.0 VVD. The culturing was stopped when cellular activity was reduced to less than 80%. […]
In addition, after the cell cultures taken during the cultivation was centrifuged, the levels of hFVII in the supernatants were measured using an enzyme immunoassay method as in Example <2-2>.

[4] = 0.3 mM sodium butyrate (control)
[5] = 1.0 mM sodium butyrate, day 4, control = 0.3 mM
[6] = 1.5 mM sodium butyrate, control = 0.3 mM
[7] = 1.5 mM sodium butyrate, day 4, control = 0.3 mM
[8] = day 4, among cultures with 0.3, 1.0 and 1.5 mM butyrate

Row | SMILES | expression level of human factor VII [1] | FVII Level (% compared to control %) [2, 4] [%] | Final Cell Density (% compared to control) ([2]; 0.3 mM sodium butyrate (control), day 4) [%] | FVII Level (% compared to control %) ([2]; 1.0 mM sodium butyrate, control = 0.3 mM) [%] | Cellular Activity (% compared to control) [2, 5] [%] | Final Cell Density (% compared to control) [2, 5] [%] | FVII Level (% compared to control %) [2, 6] [%] | Cellular Activity (% compared to control) [2, 7] [%] | Final Cell Density (% compared to control) [2, 7] [%] | production of hFVII ([2]; 0.3, 1.0 and 1.5 mM sodium butyrate) | activity at 300 µM ([2]; Cricetulus griseus, CHO, 96 h, 0.3 mM sodium butyrate (control), day 4, read-out: Cellular Activity (% compared to control)) [%] | cell density [2, 8] | cellular activity [2, 8] | FVII Level (% compared to control %) [3, 4] [%] | FVII Level (% compared to control %) ([3]; 1 mM sodium butyrate, control = 0.3 mM) [%] | FVII Level (% compared to control %) [3, 6] [%] | FVII Level (% compared to control %) ([3]; 2.0 mM sodium butyrate, control = 0.3 mM) [%] | amounts of FVII produced ([3]; higher concentrations of sodium butyrate, in spite of reduced periods of time of production)
1 | CN(Cc1cnc2nc(N)nc(N)c2n1)c1ccc(C(=O)N[C@@H](CCC(=O)O)C(=O)O)cc1 [MTX, Methotrexate] | not increased | – | – | – | – | – | – | – | – | – | – | – | – | – | – | – | – | –
2 | CCCC(=O)[O-].[Na+] [Sodium Butyrate, sodium butyrate] | – | 100.0 | 100.0 | 164.9 | 100.2 | 106.8 | 190.1 | 99.9 | 108.5 | increased in a sodium butyrate dose-dependent manner | 100 | no changes | no changes | 100.0 | 154.5 | 157.7 | 127.6 | higher amounts of FVII were produced
